The values that follow come from US20250171404A1, “PCNA INHIBITORS AND USES THEREOF” (CITY OF HOPE, priority 2022, published 2025).

pIC50: −log10 of the molar value.

For one data set, the system named is HCT-116. As to the kind of experiment: Cell growth IC50, screening of AOH1160 analogs. To be noted: Homo sapiens, HCT-116, read-out: IC50 values. Format: cell-based.
For a further data set, the system named is HTC-116. As to the kind of experiment: Cell growth IC50, screening of AOH1160 analogs. In kind it is cell-based. As to conditions: read-out: IC50 values.
In a further data set the test system is MDA-MB-468. The data set can be described thus: Cell growth IC50, screening of AOH1160 analogs. In kind it is cell-based. As to conditions: Homo sapiens, MDA-MB-468, read-out: IC50 values.
Another data set relates to OVCAR8. As to the kind of experiment: Cell growth IC50, screening of AOH1160 analogs. Format: cell-based. As to conditions: Homo sapiens, OVCAR-8, read-out: IC50 values.
The test system of another data set is RKO. As to the kind of experiment: Cell growth IC50, screening of AOH1160 analogs. In kind it is cell-based. To be noted: Homo sapiens, read-out: IC50 values.
The subject of data set [1] is SK-N-BE(2)c xenograft tumors. The data set can be described thus: Xenograft tumor model, neuroblastoma. Format: in vivo, mice. As to the method: FIGS. 4A-4H. Pharmacokinetics and anti-tumor growth activity of AOH1996 in vivo. FIG. 4A: After oral administration, the plasma concentrations of AOH1996 from three male and three female ES1^e/SCID mice at the indicated time points were averaged and graphed ±S.D. The inset contains PK parameters determined by a standard noncompartmental method. FIG. 4B: A similar PK study of AOH1996 was performed in dogs. FIGS. 4C-4E: Mice bearing the xenograft tumors of neuroblastoma (FIG. 4C: SK-N-BE(2)c), breast cancer (FIG. 4D: MDA-MB-468), and small-cell lung cancer (FIG. 4E: H82) were given vehicle only (black) or 40 mg/kg of AOH1996 (grey) twice daily immediately after the first measurement. Tumor sizes were measured by a dial caliper each week. Tumor volumes (0.4×L×W^2) were averaged and graphed ±S.E. (*, P<0.01). FIG. 4F: Animal body weight was monitored throughout the studies as an indicator of toxicity. Shown is a typical study results from the study of the SK-N-BE(2)c tumor model described in (FIG. 4C). FIG. 4G: The levels of phosphor-Chk1 (pChk1) and γH2A.X in SK-N-BE(2)c derived tumor samples were analyzed by IHC. Shown are representative images taken from tumors treated by vehicle only or by 40 mg/kg AOH1996. FIG. 4H: ES1^e/SCID mice bearing SK-N-AS derived xenograft tumors were treated with either 80 mg/kg of AOH1996 (black, n=7) for 8 d beginning 8 d after tumor implantation, 15 mg/kg of CPT-11 (n=8) for 3 d beginning 12 d after tumor implantation, or both agents (combination, n=8) under the same dosages and schedules as they were dosed alone. […] The p values determined by the Log-rank (Mantel-Cox) test between combination treatment and each of the control groups are p=0.0003 (Combination vs. NoRx), p=0.005 (Combination vs. AOH1996 alone), and p=0.024 (Combination vs. CPT-11 alone).
In vivo tumor model. […] Tumor size and animal weight were measured weekly. At the end of the experiment, tumors were isolated from sacrificed mice and analyzed by immunohistochemistry staining with antibodies specific for phosphor-Chk1 and γH2A.X.

In data set [2] the target is T1, PCNA interaction with RPB1 (Homo sapiens, UniProt P12004).
T1 construct: expressed in transfected cells; host or cells: SK-N-AS (FLAG-RPB1 exogenous; PCNA endogenous)
The data set can be described thus: PCNA interaction with RPB1 (immunoprecipitation, western blotting). In kind it is cell-based. As to conditions: SK-N-AS. The method, then:
FIGS. 5A-5E. Modulation of PCNA interaction with RNA polymerase II. FIG. 5A: Chromatin-bound (CB) proteins were fractioned from HEK293T cells expressing FLAG-tagged PCNA after the cells were treated with or without 500 nM AOH1996. Proteins in complex with FLAG-PCNA were immune-precipitated and analyzed by mass spectrometry. Shown are numbers of proteins whose abundances were altered (grey) or unaltered (black) by more than 2-fold by AOH1996 treatment. FIG. 5B: SK-N-AS cells exogenously expressing a FLAG-tagged RPB1 gene were fractioned before and after being treated with 500 nM AOH1996 overnight. PCNA in complex with chromatin-bound (CB) FLAG-RBP1 were analyzed by western blotting. FIG. 5C: Human SK-N-AS cells were treated with UV in the presence or absence of AOH1996 (AOH) or R9-caPep (caPep). Whole cell extracts were analyzed by western blotting. FIG. 5D: Cells exogenously expressing FLAG-tagged wildtype RPB1 or FLAG-tagged APIM-mutant RPB1 gene were fractioned. PCNA in complex with chromatin-bound (CB) FLAG-RBP1 were analyzed by western blotting. FIG. 5E: HEK293T cells were transiently transfected with a FLAG-tagged wildtype RPB1 (APIM WT) gene or mutant RPB1 gene (APIM mutant). The intracellular MCM7 and RBP1 (both the hypo-phosphorylated RNAPIIa and hyper-phosphorylated RNAPIIo forms) were analyzed by western blot after cells were treated by the indicated agents and/or UV.
Modulating PCNA interaction with transcription machinery.
Cell fractionation and immunoprecipitation. Cells were fractionated as previously described (Li et al., 2018). Briefly, intact nuclei isolated following osmotic lysis were homogenized using a 21 G needle. Chromatin was pelleted by centrifugation and incubated overnight at 4° C. with benzonase in two volumes of nuclease buffer (20 mM HEPES pH 7.5, 1.5 mM MgCl2, 1 mM EDTA, 150 mM KCl, 10% glycerol, 0.5 U μl-1 benzonase). The resulting supernatant was collected as the CB fraction. Alternatively, we sequentially incubated the chromatin pellet with RNase A and benzonase and collected the supernatants after each digestion as the CB:RNA+ and CB:RNA− fractions, respectively (Li et al., 2018).

Turning to `COc1cccc(Oc2ccccc2NC(=O)CNC(=O)c2cccc3ccccc23)c1` [AOH1996, N-(2-((2-(3-methoxyphenoxy)phenyl)amino)-2-oxoethyl)-1-naphthamide], the negative-log IC50 (pIC50) in the data set with HCT-116 was 6.10; in the data set on HTC-116, 6.60; in the data set with MDA-MB-468, 6.13; in the data set with OVCAR8, 6.26; in the data set with RKO it was 6.59. The “pharmacodynamics markers in tumors (immunohistochemistry)” value in data set [1] (40 mg/kg AOH1996 vs vehicle) was “Focal staining of γH2A.X and phospho-Chk1 were observed”. Further, in data set [1] (40 mg/kg twice daily, oral, vs vehicle), the tumor burden entry is given as “significantly reduced tumor burden”. In addition, the “death, body weight” value in data set [1] (xenograft studies, 40 mg/kg twice daily) is listed as “did not cause any death or significant weight loss”. Also, the “PCNA interaction with RPB1” value in data set [2] (chromatin-bound) was “enhanced interaction between PCNA and RPB1”. The RPB1 levels result in data set [2] (whole cell extracts) was “depleted RPB1 in cancer cells”.
